The source made the active and inactive calls. The rule behind the calls is not given here.
How the values were obtained:
[1] = target: T1, NEDD8 activating enzyme (Homo sapiens) (UniProt Q8TBC4+Q13564); assay: Inhibition of NAE in human MGC-803 cells assessed as reduction in UBC12-NEDD8 complex incubated for 24 hrs by Western blot analysis; format: cell-based; settings: dose 1-5 µM
[2] = target: T1, NEDD8 activating enzyme (Homo sapiens); assay: Inhibition of NAE in human MGC-803 cells assessed as reduction in NAE1-NEDD8 complex incubated for 24 hrs by Western blot analysis; format: cell-based; settings: dose 1-5 µM
[3] = target: T1, NEDD8 activating enzyme (Homo sapiens); assay: Inhibition of NAE in human MGC-803 cells assessed as reduction in cullin1 neddylation incubated for 24 hrs by Western blot analysis; format: cell-based; settings: dose 1-5 µM
[4] = target: T1, NEDD8 activating enzyme (Homo sapiens); assay: Inhibition of NAE in human MGC-803 cells assessed as reduction in cullin3 neddylation incubated for 24 hrs by Western blot analysis; format: cell-based; settings: dose 1-5 µM
[5] = target: T1, NEDD8 activating enzyme (Homo sapiens); assay: Inhibition of NAE in human MGC-803 cells assessed as reduction in cullin5 neddylation incubated for 24 hrs by Western blot analysis; format: cell-based; settings: dose 1-5 µM
MGC-803 [6] = assay: Induction of cell cycle arrest in human MGC-803 cells assessed as accumulation of cells at G1 phase at 1 uM incubated for 24 hrs by flow cytometry analysis (reference value: 64.82%); format: functional
MGC-803 [7] = assay: Induction of cell cycle arrest in human MGC-803 cells assessed as accumulation of cells at G1 phase at 2 uM incubated for 24 hrs by flow cytometry analysis (reference value: 64.82%); format: functional
MGC-803 [8] = assay: Induction of cell cycle arrest in human MGC-803 cells assessed as accumulation of cells at G1 phase at 4 uM incubated for 24 hrs by flow cytometry analysis (reference value: 64.82%); format: functional
MGC-803 [9] = assay: Induction of cell cycle arrest in human MGC-803 cells assessed as accumulation of cells in S phase at 1 uM incubated for 24 hrs by flow cytometry analysis (reference value: 21.93%); format: functional
MGC-803 [10] = assay: Induction of cell cycle arrest in human MGC-803 cells assessed as accumulation of cells in S phase at 2 uM incubated for 24 hrs by flow cytometry analysis (reference value: 21.93%); format: functional
MGC-803 [11] = assay: Induction of cell cycle arrest in human MGC-803 cells assessed as accumulation of cells in S phase at 4 uM incubated for 24 hrs by flow cytometry analysis (reference value: 21.93%); format: functional
MGC-803 [12] = assay: Induction of cell cycle arrest in human MGC-803 cells assessed as accumulation of cells in G2/M phase at 1 uM incubated for 24 hrs by flow cytometry analysis (reference value: 13.25%); format: functional
MGC-803 [13] = assay: Induction of cell cycle arrest in human MGC-803 cells assessed as accumulation of cells in G2/M phase at 2 uM incubated for 24 hrs by flow cytometry analysis (reference value: 13.25%); format: functional
MGC-803 [14] = assay: Induction of cell cycle arrest in human MGC-803 cells assessed as accumulation of cells in G2/M phase at 4 uM incubated for 24 hrs by flow cytometry analysis (reference value: 13.25%); format: functional
MGC-803 [15] = assay: Induction of apoptosis in human MGC-803 cells assessed as viable cells at 1 uM incubated for 48 hrs by Annexin V-FITC/PI double staining based flow cytometry analysis (reference value: 97.3 %); format: functional; settings: read-out: Activity
MGC-803 [16] = assay: Induction of apoptosis in human MGC-803 cells assessed as viable cells at 2 uM incubated for 48 hrs by Annexin V-FITC/PI double staining based flow cytometry analysis (reference value: 97.3 %); format: functional; settings: read-out: Activity
MGC-803 [17] = assay: Induction of apoptosis in human MGC-803 cells assessed as viable cells at 4 uM incubated for 48 hrs by Annexin V-FITC/PI double staining based flow cytometry analysis (reference value: 97.3 %); format: functional; settings: read-out: Activity
MGC-803 [18] = assay: Induction of apoptosis in human MGC-803 cells assessed as early apoptosis cells at 1 uM incubated for 48 hrs by Annexin V-FITC/PI double staining based flow cytometry analysis (reference value: 0.39 %); format: functional
MGC-803 [19] = assay: Induction of apoptosis in human MGC-803 cells assessed as early apoptosis cells at 2 uM incubated for 48 hrs by Annexin V-FITC/PI double staining based flow cytometry analysis (reference value: 0.39 %); format: functional
MGC-803 [20] = assay: Induction of apoptosis in human MGC-803 cells assessed as early apoptosis cells at 4 uM incubated for 48 hrs by Annexin V-FITC/PI double staining based flow cytometry analysis (reference value: 0.39 %); format: functional
MGC-803 [21] = assay: Induction of apoptosis in human MGC-803 cells assessed as late apoptosis cells at 1 uM incubated for 48 hrs by Annexin V-FITC/PI double staining based flow cytometry analysis (reference value: 1.95 %); format: functional
MGC-803 [22] = assay: Induction of apoptosis in human MGC-803 cells assessed as late apoptosis cells at 2 uM incubated for 48 hrs by Annexin V-FITC/PI double staining based flow cytometry analysis (reference value: 1.95 %); format: functional
MGC-803 [23] = assay: Induction of apoptosis in human MGC-803 cells assessed as late apoptosis cells at 4 uM incubated for 48 hrs by Annexin V-FITC/PI double staining based flow cytometry analysis (reference value: 1.95 %); format: functional
MGC-803 [24] = assay: Induction of apoptosis in human MGC-803 cells assessed as necrotic cells at 1 uM incubated for 48 hrs by Annexin V-FITC/PI double staining based flow cytometry analysis (reference value: 0.37 %); format: functional
MGC-803 [25] = assay: Induction of apoptosis in human MGC-803 cells assessed as necrotic cells at 2 uM incubated for 48 hrs by Annexin V-FITC/PI double staining based flow cytometry analysis (reference value: 0.37 %); format: functional
MGC-803 [26] = assay: Induction of apoptosis in human MGC-803 cells assessed as necrotic cells at 4 uM incubated for 48 hrs by Annexin V-FITC/PI double staining based flow cytometry analysis (reference value: 0.37 %); format: functional
MGC-803 [27] = assay: Induction of ROS generation in human MGC-803 cells at 1 uM incubated for 24 hrs by DCFH-DA staining based flow cytometry analysis (reference value: 3.1%); format: functional
MGC-803 [28] = assay: Induction of ROS generation in human MGC-803 cells at 2 uM incubated for 24 hrs by DCFH-DA staining based flow cytometry analysis (reference value: 3.1%); format: functional
MGC-803 [29] = assay: Induction of ROS generation in human MGC-803 cells at 4 uM incubated for 24 hrs by DCFH-DA staining based flow cytometry analysis (reference value: 3.1%); format: functional
MGC-803 [30] = assay: Inhibition of cell migration in human MGC-803 cells incubated for 48 hrs by wound healing assay; format: functional, cell-based; settings: dose 1-4 µM
MGC-803 [31] = assay: Inhibition of cell migration in human MGC-803 cells assessed as reduction in wound closure rate at 4 uM incubated for 48 hrs by wound healing assay (reference value: 49%); format: functional
MGC-803 [32] = assay: Inhibition of colony formation in human MGC-803 cells incubated for 48 hrs by phase-contrast microscopy; format: functional, cell-based; settings: dose 1-4 µM
A549 = assay: Antiproliferative activity against human A549 cells by CCK8 assay; format: functional, cell-based
MGC-803 [33] = assay: Antiproliferative activity against human MGC-803 cells by CCK8 assay; format: functional, cell-based
MCF7 = assay: Antiproliferative activity against human MCF7 cells by CCK8 assay; format: functional, cell-based
KYSE-30 = assay: Antiproliferative activity against human KYSE-30 cells by CCK8 assay; format: functional, cell-based
[34] = Cytotoxicity against HUVECs incubated for 72 hrs by CCK8 assay; format: toxicity, cell-based; settings: human, HUVEC cells
[35] = Selectivity index, ratio of IC50 for human A549 cells to IC50 for HUVECs
[36] = Selectivity index, ratio of IC50 for human MGC-803 cells to IC50 for HUVECs
[37] = Selectivity index, ratio of IC50 for human MCF7 cells to IC50 for HUVECs
[38] = Selectivity index, ratio of IC50 for human KYSE-30 cells to IC50 for HUVECs
[39] = target: T1, NEDD8 activating enzyme (Homo sapiens); assay: Inhibition of NAE in human MGC-803 cells assessed as reduction in NAE1-NEDD8 complex formation at 5 uM incubated for 24 hrs by Western blot analysis relative to control; format: cell-based

Compound: CCc1ccc(C(=O)Nc2nc3ccc(NC(=O)C4CCN(Cc5ccccc5)CC4)cc3s2)cc1
- inhibition [1]: Dose-Dependent Effect
- inhibition [2]: Dose-Dependent Effect
- inhibition [3]: Dose-Dependent Effect
- inhibition [4]: Dose-Dependent Effect
- inhibition [5]: inactive
- Activity (MGC-803 [6]): 68.08%
- Activity (MGC-803 [7]): 61.71%
- Activity (MGC-803 [8]): 45.22%
- Activity (MGC-803 [9]): 13.29%
- Activity (MGC-803 [10]): 12.39%
- Activity (MGC-803 [11]): 17.12%
- Activity (MGC-803 [12]): 18.63%
- Activity (MGC-803 [13]): 25.9%
- Activity (MGC-803 [14]): 37.66%
- viability at 1 µM (MGC-803 [15]): 86.5%
- viability at 2 µM (MGC-803 [16]): 73.3%
- viability at 4 µM (MGC-803 [17]): 57.6%
- Activity (MGC-803 [18]): 3.15%
- Activity (MGC-803 [19]): 7.92%
- Activity (MGC-803 [20]): 8.54%
- Activity (MGC-803 [21]): 10.1%
- Activity (MGC-803 [22]): 18.5%
- Activity (MGC-803 [23]): 33.8%
- Activity (MGC-803 [24]): 0.18%
- Activity (MGC-803 [25]): 0.23%
- Activity (MGC-803 [26]): 0.11%
- Activity (MGC-803 [27]): 6.8%
- Activity (MGC-803 [28]): 13.1%
- Activity (MGC-803 [29]): 26.4%
- inhibition (MGC-803 [30]): Dose-Dependent Effect
- inhibition at 4 µM (MGC-803 [31]): < 20%
- inhibition (MGC-803 [32]): Dose-Dependent Effect
- IC50 (A549): 870 nM
- IC50 (MGC-803 [33]): 1630 nM
- IC50 (MCF7): 960 nM
- IC50 (KYSE-30): 650 nM
- IC50 at 72 h [34]: 6210 nM
- Ratio IC50 [35]: 3.8
- Ratio IC50 [36]: 3.8
- Ratio IC50 [37]: 3.8
- Ratio IC50 [38]: 3.8
- inhibition [39]: 100%

From ChEMBL document CHEMBL5625268, “Identification of novel benzothiazole derivatives as inhibitors of NEDDylation pathway to inhibit the progression of gastric cancer” (Bioorg Med Chem Lett, 2024)
